Converted amounts (≈) assume the structure as drawn. Counter-ions that a name gives are not always drawn. Like-named read-outs stand apart in the source and are kept apart here.
Columns and labels:
[1] = biological target: T1, HIV protease (Human immunodeficiency virus type 1 group M subtype B, UniProt P04585); assay: Cell free protease inhibition assay (HIV gag polyprotein cleavage); format: biochemical; conditions: Table XVII, unit inferred, IC50 per method
T1 construct: inclusion bodies of E. coli harboring plasmid containing HIV protease under the control of the T7 promotor; made in house; host or cells: E. coli (A: crude lysate, lac promotor)
Source text: HIV gag polyprotein corresponding to all of p17 and 78 amino acids of p24, produced by in vitro translation using rabbit reticulocyte lysate and mRNA prepared in vitro from plasmid encoding full length gag polyprotein linerized with the restriction enzyme Pst 1. (See S. Erickson-Viitanen et al., Aids Research and Human Retroviruses, 5 (6), 577 (1989) for plasmid construction, and basis for assay).
Source of protease: Either (A) crude E. coli lysate of bacteria harboring a plasmid containing HIV protease under the control of the lac promotor, used at a final concentration of 0.5 mg/ml, or (B) inclusion bodies of E. coli harboring plasmid containing HIV protease under the control of the T7 promotor (Cheng et al., Gene, in press (1990). Such inclusion bodies were solubilized in 8M urea, 50 mM Tris pH 8.0. Protease activity was recovered by dilution of the inclusion bodies 20-fold in buffer containing 50 mM Sodium Acetate, pH 5.5, 1 mM EDTA, 10% glycerol and 5% ethylene glycol. This protease source was used at a final concentration of 0.00875 mg/ml.
Inhibitory compounds were dissolved in sufficient DMSO to make a 25 mM stock concentration. All further dilutions were done in DMSO.
Into sterile test tubes were placed the following:
14 ul HIV protease in Phosphate Buffered Saline (Gibco)
5 ul of in vitro translation products.
Reactions were incubated at 30° C., then quenched by the addition of Sample buffer. See U. K. Laemmli, Nature, 1970, 227:680-685.
One fourth of each sample was analyzed on an 8-16% gradient denaturing acrylamide gel (Novex, Inc), according to Laemmli. Following electrophoresis, gels were fixed, impregnated with Enhance (Du Pont NEN, Boston, Mass.) and dried according to manufacturers instructions (NEN). Dried fluorographs were exposed to film and/or quantitated using an Ambis radioanalytic scanner.
Each group of test compounds was compared to the values obtained for pepstatin, a well known inhibitor of acid proteases. Inhibitory concentration for 50% inhibition (IC50) is determined from plots of log concentration inhibitor versus % inhibition of protease activity.
Biological Activity: IC50 is the concentration necessary for reducing the activity of the enzyme by 50%.

[2] = tested on: HIV(3b) or HIV(Rf); assay: HIV cell assay (HIV low multiplicity assay, protection of MT-2 cells from virus induced cell death, XTT); format: cell-based, Human immunodeficiency virus; conditions: for Cell Assay IC50: unit not given
Experimental: […], a human T-cell line, was cultured in RPMI medium supplemented with 5% (v/v) heat inactivated fetal calf serum (FCS), L-glutamine and gentamycin (GIBCO). Human immunodeficiency virus strains HIV(3b) and HIV (Rf) were propagated in H-9 cells in RPMI with 5% FCS. XTT, benzene-sulfonic acid, 3,3'-[1-[(phenylamino)carbonyl]-3,4-tetrazolium]bis(4-methoxy-6-nitro)-, sodium salt, was obtained from Starks Associates, Inc.
Test compounds were dissolved in dimethyl-sulfoxide to 5 mg/ml and serially diluted into RPMI medium to ten times the desired final concentration. MT-2 cells (5×10E4/0.1 ml) were added to each well of a 96 well culture plate and 0.02 ml of the appropriate test compound solution was added to the cells such that each compound concentration was present in two wells. The cells and compounds were allowed to sit for 30 minutes at room temperature. HIV(3b) or HIV(Rf) (~5×10E5 plaque forming units/ml) was diluted in medium and added to the cell and compound mixtures to give a multiplicity of infection of 0.01 plaque forming unit/cell. The mixtures were incubated for 7 days at 36° C., during which time the virus replicated and caused the death of unprotected cells. The percentage of cells protected from virus induced cell death was determined by the degree of metabolism of the tetrazolium dye, XTT. In living cells, XTT was metabolized to a colored formazan product which was quantitated spectrophoto-metrically at […]. The amount of colored formazan was proportional to the number of cells protected from virus by the test compound. The concentration of compound protecting either 50% (IC50) or 90% (IC90) with respect to an uninfected cell culture was determined.

[3] = read-out: Cell Free Assay (converted)
[4] = Human immunodeficiency virus 1, MT2, Table XVII, unit inferred, HIV in MT-2 cells, read-out: Cell Assay IC90
[5] = Human immunodeficiency virus 1, MT2, Table XVII, unit inferred, HIV in MT-2 cells, read-out: Cell Assay IC50

Structure (SMILES)	IC50 [1, 3] [µM]	also measured
CC(C)(C)OC(=O)NCC(O)C(O)CNC(=O)OC(C)(C)C (stereo not shown) [Example 3, Bis(1,1-dimethylethyl) (2,3-dihydroxy-1,4-butanediyl)biscarbamate]	1200	
CC(NC(=O)OC(C)(C)C)C(O)C(O)C(C)NC(=O)OC(C)(C)C (stereo not shown) [Example 4, Bis(1,1-dimethylethyl) (2,3-dihydroxy-1,4-dimethyl-1,4-butanediyl)biscarbamate]	1250	
CC(C)C(NC(=O)OC(C)(C)C)C(O)C(O)C(NC(=O)OC(C)(C)C)C(C)C (stereo not shown) [Example 5, Bis(1,1-dimethylethyl) (2,3-dihydroxy-1,4-(1-methylethyl)-1,4-butanediyl)biscarbamate]	161	
CC(C)(C)OC(=O)N1CCCC1C(O)C(O)C1CCCN1C(=O)OC(C)(C)C (stereo not shown) [Example 7, Bis(1,1-dimethylethyl) 2,2'-(1,2-dihydroxy-1,2-ethanediyl)-1-bis(pyrrolidinecarboxylate)]	1250	
O=C(NC(Cc1ccccc1)C(O)C(O)C(Cc1ccccc1)NC(=O)OCc1ccccc1)OCc1ccccc1 (stereo not shown) [Example 9]	0.914	
CC(=O)N[C@@H](Cc1ccccc1)[C@@H](O)[C@H](O)[C@H](Cc1ccccc1)NC(C)=O [Example 14, N,N'-((2,3-dihydroxy-1,4-(phenylmethyl)-1,4-butanediyl))bisacetamide]	1250	
N[C@@H](Cc1ccccc1)[C@H](O)[C@@H](O)[C@@H](N)Cc1ccccc1 [Example 15, 2,5-Diamino-1,6-diphenyl-3,4-hexanediol dihydrochloride]	866	
N[C@@H](Cc1ccccc1)[C@@H](O)[C@H](O)[C@@H](N)Cc1ccccc1 [Example 16, 2,5-Diamino-1,6-diphenyl-3,4-hexanediol dihydrochloride]	866	
CC(N)C(O)C(O)C(C)N (stereo not shown) [Example 17, 2,5-Diamino-3,4-hexanediol dihydrochloride]	1260	
CC(NC(=O)C(NC(=O)OC(C)(C)C)C(C)O)C(=O)NC(C(=O)NC(C)C(=O)NC(Cc1ccccc1)C(O)C(O)C(Cc1ccccc1)NC(=O)C(C)NC(=O)C(NC(=O)C(C)NC(=O)C(NC(=O)OC(C)(C)C)C(C)O)C(C)O)C(C)O (stereo not drawn) [Example 18, Bis(Boc-Thr-Ala-Thr-Ala), N,N'((2,3-dihydroxy-1,4-(phenylmethyl)-1,4-butanediyl))biscarbamate]		IC50 ([1]; read-out: Cell Free Assay): 1.93 µM; IC50 ([2]; Human immunodeficiency virus 1, MT2, read-out: Cell Assay IC50): 6 µg/mL (≈ 5.04 µM); IC90 ([2]; Human immunodeficiency virus 1, MT2, read-out: Cell Assay IC90): 12 µg/mL (≈ 10.1 µM)
CC[C@H](C)[C@H](NC(=O)Cc1ccccn1)C(=O)N[C@@H](Cc1ccccc1)[C@@H](O)[C@H](O)[C@H](Cc1ccccc1)NC(=O)[C@@H](NC(=O)Cc1ccccn1)[C@@H](C)CC [Example 20, 2,5-(N-2-Pyridylacetyl-L-Ile)diamino-1,6-diphenyl-3,4-hexanediol]	0.0131	IC50 [2, 5]: < 1 µg/mL; IC90 [2, 4]: < 1 µg/mL
CCC(C)C(NC(=O)Cc1ccccn1)C(=O)NC(Cc1ccccc1)C(O)C(O)C(Cc1ccccc1)NC(=O)C(NC(=O)Cc1ccccn1)C(C)CC [Example 21, 2,5-(N-2-Pyridyl-L-Ile,N'-2-pyridyl-D-Ile)diamino-1,6-diphenyl-3,4-hexanediol]	0.00261	IC50 [2, 5]: 6 µg/mL (≈ 7.84 µM)

Second part, led by results:

IC50 [1, 3] [µM]	Structure (SMILES)	also measured
25.6	CSCCC(NC(=O)OC(C)(C)C)C(O)C(O)C(CCSC)NC(=O)OC(C)(C)C (stereo not shown) [Example 1A]	IC90 [2, 4]: 6 µg/mL (≈ 12.8 µM); Cell Assay IC50 ([2]; Table XVII, HIV in MT-2 cells): 2
78.9	CSCCC(NC(=O)OC(C)(C)C)C(O)C(O)C(CCSC)NC(=O)OC(C)(C)C (stereo not shown) [Example 1B]	Cell Assay IC50 ([2]; Table XVII, HIV in MT-2 cells): 5
24	CC(C)(C)OC(=O)N[C@@H](Cc1ccccc1)[C@H](O)[C@@H](O)[C@H](Cc1ccccc1)NC(=O)OC(C)(C)C [Example 2A, Bis(1,1-dimethylethyl) (2,3-dihydroxy-1,4-(phenylmethyl)-1,4-butanediyl)biscarbamate (1S,2S,3S,4S)]	IC50 [2, 5]: 10 µg/mL (≈ 20 µM); IC90 [2, 4]: 30 µg/mL (≈ 59.9 µM)
0.34	CC(C)(C)OC(=O)N[C@@H](Cc1ccccc1)[C@@H](O)[C@H](O)[C@H](Cc1ccccc1)NC(=O)OC(C)(C)C [Example 2B]	IC50 [2, 5]: 1.9 µg/mL (≈ 3.8 µM); IC90 [2, 4]: 3 µg/mL (≈ 5.99 µM)
61.9	CC(C)(C)OC(=O)N[C@@H](Cc1ccccc1)[C@H](O)[C@H](O)[C@H](Cc1ccccc1)NC(=O)OC(C)(C)C [Example 2C, Bis(1,1-dimethylethyl) (2,3-dihydroxy-1,4-(phenylmethyl)-1,4-butanediyl)biscarbamate (1S,2S,3R,4S)]	
11.1	CC(C)CC(NC(=O)OC(C)(C)C)C(O)C(O)C(CC(C)C)NC(=O)OC(C)(C)C (stereo not shown) [Example 6, Bis(1,1-dimethylethyl) (2,3-dihydroxy-1,4-(2-methylpropyl)-1,4-butanediyl)biscarbamate]	
1250	CC(C)(C)OC(=O)NC(c1ccccc1)C(O)C(O)C(NC(=O)OC(C)(C)C)c1ccccc1 (stereo not shown) [Example 8, Bis (1,1-dimethylethyl) (2,3-dihydroxy-1,4-diphenyl-1,4-butanediyl)biscarbamate]	
1130	CC(C)(C)OC(=O)NC(CCc1ccccc1)C(O)C(O)C(CCc1ccccc1)NC(=O)OC(C)(C)C (stereo not shown) [Example 10, Bis(1,1-dimethylethyl) (2,3-dihydroxy-1,4-(2-phenylmethyl)-1,4-butanediyl)biscarbamate]	
37.3	CC(C)(C)OC(=O)NC(Cc1ccc(F)cc1)C(O)C(O)C(Cc1ccc(F)cc1)NC(=O)OC(C)(C)C (stereo not shown) [Example 11]	
5.45	CC(C)(C)OC(=O)NC(Cc1ccc(I)cc1)C(O)C(O)C(Cc1ccc(I)cc1)NC(=O)OC(C)(C)C (stereo not shown) [Example 12]	
6.2	CC(C)(C)OC(=O)NC(Cc1ccc(O)cc1)C(O)C(O)C(Cc1ccc(O)cc1)NC(=O)OC(C)(C)C (stereo not shown) [Example 13, Bis(1,1-dimethylethyl) (2,3-dihydroxy-1,4-(4-hydroxyphenyl)methyl-1,4-butaneidyl)biscarbamate]	IC50 [2, 5]: 2.3 µg/mL (≈ 4.32 µM); IC90 [2, 4]: 25 µg/mL (≈ 46.9 µM)
